Data taken from patent publication US12631644B2, “Biomarker panel targeted to diseases due to multifactorial ontology of glycocalyx disruption” (Arterez, Inc., priority 2019, dated 2026).

How the values were obtained:
inflammation and plaque = experiment: Average disease scores (aortic sinus histology) in high-fat diet mice, Example 1; assay type: in vivo, mouse; conditions: FIG. 9; per group and time point; gavage 150 μmol/kg
Method: For a pilot study, forty-eight 10-week old male C57/Bl6 mice were obtained from Jackson Laboratories. Three mice were raised from 6 weeks on a regular diet and served as controls, and the remaining 45 were raised on a 60% fat diet (D12451, DIO series diet, Opensource Diets). For a bacterial dosage test, sixteen 10-week old male C57/Bl6 mice were divided into four treatment groups and maintained on a normal diet.
3,3′,4,4′-Tetrachlorobiphenyl (PCB-77) was obtained from Neosyn Laboratories. 100 mg of the dry chemical was suspended in 15.22 ml of corn oil to deliver 150 μmol/kg in 0.2 ml per mouse. […]
The hearts were prepared as frozen sections: they were mounted in blocks, and 10 μm-thick sections were cut through the aortic valve, to yield 30 sections per mouse. […] Multiple 10-μm sections at the level of the aortic sinus were analyzed for the presence of Oil Red O lipid staining, plaque size, amount of fibrous tissue, and inflammation. The percentage of the lumen occupied by the first three features was calculated using Image Pro Plus. […] The level of inflammation in each section was scored on the following scale: 0=no inflammatory cells observed, 1=few macrophages with no giant cells, 2=foam cells present, 3=foam cells with cholesterol, 4=foam cells, giant cells, and cholesterol present. […]

TNF-α = target: T1, TNF-α (Homo sapiens, UniProt P01375); conditions: humans; 2009 Atherosclerosis 202:296-303; cited from earlier work
T1 construct: host or cells: human subjects (in vivo, endogenous TNF-α)
T1 sequence (P01375 77-233 limits assumed): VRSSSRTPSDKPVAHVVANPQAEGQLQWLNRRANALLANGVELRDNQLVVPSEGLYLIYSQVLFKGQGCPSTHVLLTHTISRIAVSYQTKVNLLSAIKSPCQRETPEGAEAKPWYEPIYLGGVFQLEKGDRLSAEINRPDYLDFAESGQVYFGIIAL

| Compound | risk factor for producing inflammation and plaque (average disease scores) (inflammation and plaque) | shedding of glycocalyx constituents, coagulation activation, vessel function (TNF-α) |
| --- | --- | --- |
| Clc1ccc(-c2ccc(Cl)c(Cl)c2)cc1Cl [PCB77, 3,3′,4,4′-Tetrachlorobiphenyl] | most significant risk factor to producing inflammation and plaque | – |
| etanercept | – | reduces the shedding of glycocalyx constituents, coagulation activation, and functional vessel function |
